# Legend:
# [1] = system: Herpes simplex virus type II 196; test: anti-Herpes virus activity in mice; format: in vivo
# [2] = system: Infectious pancreatic necrosis (IPN) virus of rainbow trout; test: antiviral activity by tissue culture test; format: cell-based; settings: dose 0.5 mcg/m
# solubility = format: physicochemical; settings: hydrochloride
# [3] = system: Lymphocytic leukemia P-388; test: increase in life span of mice transplanted intraperitoneally with P-388; format: in vivo
# Experimental: (§1) Lymphocytic leukemia P-388 or lymphoid leukemia L-1210 cells were transplanted intraperitoneally in an amount of 1×10^6 per mouse into CDF1 mice or BDF1 mice (about 5 weeks old, body weight 20±1 g), five in one group. Twenty-four hours after the transplantation of the tumor, a solution of the BN-183B substance in distilled water for injection was administered intraperitoneally to the mice once a day for three successive days. The percent increase in life span (i.e., ILS) was measured by comparing the average number of days of survival of each treated group with that of a control group to which the BN-183B substance was not administered.
# lymphoid leukemia L-1210 = test: increase in life span of mice transplanted intraperitoneally with L-1210; format: in vivo
# Experimental: as §1
# Vaccinia virus Lister = format: cell-based; settings: dose 3.9 mcg/m
# [4] = system: DNA-type and RNA-type viruses; test: antiviral activity by tissue culture test (overall); format: cell-based; settings: overall result in words
# [5] = system: Infectious hematopoietic necrosis (IHN) virus of rainbow trout; test: antiviral activity by tissue culture test; format: cell-based; settings: dose 0.5 mcg/m
# Herpes virus type II 196 = test: antiviral activity by tissue culture test; format: cell-based; settings: dose 3.9 mcg/m
# Influenza virus A0/PR-8 = format: cell-based; settings: dose 3.9 mcg/m
# [6] = system: Gram-positive and Gram-negative bacteria; test: growth inhibition of various microorganisms (overall); format: cell-based; settings: overall result in words
# Source text: (§2) Table 1 below summarizes the minimum growth inhibitory concentrations of the BN-183B substance on various microorganisms.
# (§3) The culture media used were a nutrient agar (a product of Difco).
# [7] = system: Newcastle disease virus Miyadera; format: cell-based; settings: dose 3.9 mcg/m
# LD50 in mice = format: in vivo
# Proteus vulgaris OX19 = test: minimum growth inhibitory concentration; format: cell-based; settings: nutrient agar
# Source text: as §2, §3
# [8] = system: Staphylococcus faecalis ATCC8043; test: minimum growth inhibitory concentration; format: cell-based; settings: nutrient agar
# Source text: as §2, §3
# [9] = system: Escherichia coli NIHJ JC-2; test: minimum growth inhibitory concentration; format: cell-based; settings: nutrient agar
# Source text: as §2, §3
# [10] = system: Staphylococcus epidermidis ATCC14990; test: minimum growth inhibitory concentration; format: cell-based; settings: nutrient agar
# Source text: as §2, §3
# [11] = system: Staphylococcus aureus 209P JC-1; test: minimum growth inhibitory concentration; format: cell-based; settings: nutrient agar
# Source text: as §2, §3
# [12] = system: Escherichia coli K-12 IAM 1264; test: minimum growth inhibitory concentration; format: cell-based; settings: nutrient agar
# Source text: as §2, §3
# [13] = system: Staphylococcus aureus Smith S-424; test: minimum growth inhibitory concentration; format: cell-based; settings: nutrient agar
# Source text: as §2, §3
# [14] = system: Bacillus subtilis ATCC 6633; test: paper disc method, inhibitory zone; format: cell-based; settings: pure product, 20 to 500 mcg/ml
# Experimental: In assaying the BN-183B substance, its anti-bacterial activity is utilized and Bacillus subtilis ATCC 6633 is used as an assaying strain. A mixture of 2% of mycin assay agar (a product of Kyoei Seiyaku K.K.) and 0.5% of bacto-agar (a product of Difco) is used as an assaying culture medium. When BN-183B substance (pure product) is assayed under the above conditions, the relation between the logarithm of the concentration within the range of 20 to 500 mcg/ml and the diameter of the inhibitory zone is linear, and an inhibitory zone having a diameter of 16 to 29 mm is given corresponding to the above concentration range (paper disc method).
structure (smiles),measurement,setting,value
"O=c1[nH]c(=O)n([C@H]2C[C@H](O)[C@@H](CO)O2)cc1I [IUDR, 5-iodo-2'-deoxyuridine, reference compound]",ET50 (number of days of 50% survival),[1]; 100 mg/kg i.p.,8.50 days
same,Cumulative Mortality,"[1]; 100 mg/kg i.p., day 5 from inoculation",0%
same,Cumulative Mortality,"[1]; 100 mg/kg i.p., day 6 from inoculation",0%
same,Cumulative Mortality,"[1]; 100 mg/kg i.p., day 7 from inoculation",30%
same,Cumulative Mortality,"[1]; 100 mg/kg i.p., day 8 from inoculation",40%
same,Cumulative Mortality,"[1]; 100 mg/kg i.p., day 9 from inoculation",60%
same,Cumulative Mortality,"[1]; 100 mg/kg i.p., day 10 from inoculation",70%
same,Cumulative Mortality,"[1]; 100 mg/kg i.p., day 11 from inoculation",70%
same,Cumulative Mortality,"[1]; 100 mg/kg i.p., day 12 from inoculation",70%
same,Cumulative Mortality,"[1]; 100 mg/kg i.p., day 13 from inoculation",70%
same,Cumulative Mortality,"[1]; 100 mg/kg i.p., day 14 from inoculation",70%
C[C@H](N)C(=O)N[C@@H]1[C@H]2C(=C(O)C[C@@H](O)[C@@H]2O)C(=O)O[C@]1(C)C(Cl)Cl [BN-183B substance],Difference of Log TCID50/ml from the Control,[2],6.801 Log TCID50/ml
same,Solubility in acetone,solubility; acetone,scarcely soluble
same,Solubility in chloroform,solubility; chloroform,scarcely soluble
same,Solubility in ethyl acetate,solubility; ethyl acetate,scarcely soluble
same,Solubility in methanol,solubility; methanol,slightly soluble
same,Solubility in water,solubility; water,Very soluble
same,Percent Increase in Life Span,"[3]; P-388, 0.25 mg/kg i.p. once a day for three days",32.1%
same,Percent Increase in Life Span,"[3]; P-388, 0.5 mg/kg i.p. once a day for three days",41.5%
same,Percent Increase in Life Span,"[3]; P-388, 1 mg/kg i.p. once a day for three days",54.7%
same,Percent Increase in Life Span,"[3]; P-388, 2 mg/kg i.p. once a day for three days",79.2%
same,Percent Increase in Life Span,"[3]; P-388, 4 mg/kg i.p. once a day for three days",66.0%
same,Percent Increase in Life Span,"lymphoid leukemia L-1210; L-1210, 0.25 mg/kg i.p. once a day for three days",10.8%
same,Percent Increase in Life Span,"lymphoid leukemia L-1210; L-1210, 0.5 mg/kg i.p. once a day for three days",35.1%
same,Percent Increase in Life Span,"lymphoid leukemia L-1210; L-1210, 1 mg/kg i.p. once a day for three days",32.4%
same,Percent Increase in Life Span,"lymphoid leukemia L-1210; L-1210, 2 mg/kg i.p. once a day for three days",45.9%
same,Percent Increase in Life Span,"lymphoid leukemia L-1210; L-1210, 4 mg/kg i.p. once a day for three days",59.5%
same,Difference of Log TCID50/ml from the Control,Vaccinia virus Lister,< 3.00 Log TCID50/ml
same,activity against DNA-type and RNA-type viruses,[4],very strong activity
same,Difference of Log TCID50/ml from the Control,[5],3.000 Log TCID50/ml
same,Difference of Log TCID50/ml from the Control,Herpes virus type II 196,3.83 Log TCID50/ml
same,Difference of Log TCID50/ml from the Control,Influenza virus A0/PR-8,2.50
same,inhibitory activity on Gram-positive and Gram-negative bacteria,[6],strong inhibitory activity
same,Difference of Log TCID50/ml from the Control,[7],6.00 Log TCID50/ml
same,LD50,LD50 in mice; intramuscular,4.1 mg/kg
same,LD50,LD50 in mice; intraperitoneal,4.3 mg/kg
same,LD50,LD50 in mice; intravenous,4.1 mg/kg
same,LD50,LD50 in mice; oral,50 mg/kg
same,LD50,LD50 in mice; subcutaneous,6.0 mg/kg
same,Minimum Growth Inhibitory Concentration,Proteus vulgaris OX19,6.25 µg/mL
same,Minimum Growth Inhibitory Concentration,[8],0.39 µg/mL
same,Minimum Growth Inhibitory Concentration,[9],1.56 µg/mL
same,Minimum Growth Inhibitory Concentration,[10],0.20 µg/mL
same,Minimum Growth Inhibitory Concentration,[11],0.20 µg/mL
same,Minimum Growth Inhibitory Concentration,[12],0.78 µg/mL
same,Minimum Growth Inhibitory Concentration,[13],0.20 µg/mL
same,diameter of the inhibitory zone,[14],16 to 29 mm
same,anti-Herpes virus effect compared with IUDR,"[1]; 1.25 mg/kg BN-183B vs 100 mg/kg IUDR, i.p.",the same effect as in the group to which 100 mg/kg of IUDR was administered
same,ET50 (number of days of 50% survival),[1]; 1.25 mg/kg i.p.,8.38 days
same,Cumulative Mortality,"[1]; 1.25 mg/kg i.p., day 5 from inoculation",0%
same,Cumulative Mortality,"[1]; 1.25 mg/kg i.p., day 6 from inoculation",20%
same,Cumulative Mortality,"[1]; 1.25 mg/kg i.p., day 7 from inoculation",20%
same,Cumulative Mortality,"[1]; 1.25 mg/kg i.p., day 8 from inoculation",60%
same,Cumulative Mortality,"[1]; 1.25 mg/kg i.p., day 9 from inoculation",70%
same,Cumulative Mortality,"[1]; 1.25 mg/kg i.p., day 10 from inoculation",70%
same,Cumulative Mortality,"[1]; 1.25 mg/kg i.p., day 11 from inoculation",80%
same,Cumulative Mortality,"[1]; 1.25 mg/kg i.p., day 12 from inoculation",90%
same,Cumulative Mortality,"[1]; 1.25 mg/kg i.p., day 13 from inoculation",90%
same,Cumulative Mortality,"[1]; 1.25 mg/kg i.p., day 14 from inoculation",90%
same,ET50 (number of days of 50% survival),[1]; 2.5 mg/kg i.p.,7.65 days
same,Cumulative Mortality,"[1]; 2.5 mg/kg i.p., day 5 from inoculation",0%
same,Cumulative Mortality,"[1]; 2.5 mg/kg i.p., day 6 from inoculation",10%
same,Cumulative Mortality,"[1]; 2.5 mg/kg i.p., day 7 from inoculation",20%
same,Cumulative Mortality,"[1]; 2.5 mg/kg i.p., day 8 from inoculation",70%
same,Cumulative Mortality,"[1]; 2.5 mg/kg i.p., day 9 from inoculation",80%
same,Cumulative Mortality,"[1]; 2.5 mg/kg i.p., day 10 from inoculation",100%

# Reference: US4283389A, “Novel antibiotic, BN-183B substance” (Meiji Seika Kaisha Ltd., priority 1978, dated 1981)
